These results are taken from US20160145247A1, “Aminomethyl-Biaryl Derivatives Complement Factor D inhibitors and uses thereof” (NOVARTIS AG, priority 2013, published 2016).

In the test the target is T1, factor D (Homo sapiens, UniProt P00746).
T1 construct: made in house; host or cells: E. coli
T1 sequence (P00746 26-253): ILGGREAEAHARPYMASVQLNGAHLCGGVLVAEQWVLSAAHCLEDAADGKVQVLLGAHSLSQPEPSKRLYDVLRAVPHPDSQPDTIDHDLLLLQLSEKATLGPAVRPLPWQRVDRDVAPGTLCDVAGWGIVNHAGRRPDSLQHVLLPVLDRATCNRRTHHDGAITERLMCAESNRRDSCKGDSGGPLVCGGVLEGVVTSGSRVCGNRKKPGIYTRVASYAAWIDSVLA
Kind of test: factor D inhibition assay of Biological Example 2. The class given is biochemical.
Compound `C[C@@H](N)c1cccc(-c2cc(COc3ccccc3CC(=O)O)cc(NCC(F)(F)F)c2)c1F` [Example 226-C, (R)-2-(2-((3′-(1-aminoethyl)-2′-fluoro-5-((2,2,2-trifluoroethyl)amino)-[1,1′-biphenyl]-3-yl)methoxy)phenyl)acetic acid] came in with an IC50 of 8 nM.
`C[C@@H](N)c1cccc(-c2cc(COc3ccccc3CC(=O)O)cc(OCCF)c2)c1F` [Example 214-C] had a concentration for half-maximal inhibition (IC50) of 8 nM.
The result for `NCc1cccc(-c2cc(O)cc(C(=O)Nc3ccccc3CC(=O)O)c2)c1` [Example 59-C, 2-(2-(3′-(Aminomethyl)-5-hydroxy-[1,1′-biphenyl]-3-ylcarboxamido)phenyl)acetic acid] reads 95 nM; that for `NCc1cc(F)cc(-c2cc(NCc3ccncc3)cc(C(=O)Nc3ccccc3CC(=O)O)c2)c1` [Example 14-B], 11 nM.
In the case of `CNC(=O)c1cc(COc2cc(C(=O)Nc3ccccc3CC(=O)O)cc(-c3cccc(CN)c3)c2)ccn1` [Example 70, 2-(2-(3′-(Aminomethyl)-5-((2-(methylcarbamoyl)pyridin-4-yl)methoxy)-[1,1′-biphenyl]-3-ylcarboxamido)phenyl)acetic acid], the half-inhibitory concentration (IC50) was found to be 11 nM. This lies in the double-digit nanomolar range.
The result for `CCc1cc(COc2ccccc2CC(=O)O)cc(-c2cccc([C@H](N)CO)c2)c1` [Example 110-C, (S)-2-(2-((3′-(1-Amino-2-hydroxyethyl)-5-ethyl-[1,1′-biphenyl]-3-yl)methoxy)phenyl)acetic acid] reads 30 nM; that for `CC(O)c1cc(COc2ccccc2CC(=O)O)cc(-c2cccc([C@H](C)N)c2)c1` (stereo partly shown) [Example 120-L], 280 nM.
The result for `N#Cc1ccc(OCc2cccc(-c3cccc(CN)c3)c2)c(CC(=O)O)c1` [Example 294-F] reads 70 nM; that for `N#Cc1cc(COc2ccccc2CC(=O)O)cc(-c2cccc(CN)c2)c1` [Example 113-B, 2-(2-((3′-(Aminomethyl)-5-cyano-[1,1′-biphenyl]-3-yl)methoxy)phenyl)acetic acid], 30 nM; that for `NCc1cccc(-c2cccc(C(=O)Nc3cc(Cl)ccc3CC(=O)O)c2)c1` [Example 17-B, 2-(2-(3′-(Aminomethyl)-[1,1′-biphenyl]-3-ylcarboxamido)-4-chlorophenyl)acetic acid], 399 nM.
With `Cc1ccc(S(=O)(=O)n2ncc3c(COc4ccccc4CC(=O)O)cc(-c4cccc([C@H](N)CO)c4)cc32)cc1` [Example 186, (S)-2-(2-((6-(3-(1-Amino-2-hydroxyethyl)phenyl)-1-tosyl-1H-indazol-4-yl)methoxy)phenyl)acetic acid] the figure was 14 nM; with `COc1ccc(-c2cccc([C@@H](C)N)c2F)cc1COc1ccccc1CC(=O)O` [Example 276, (R)-2-(2-((3′-(1-aminoethyl)-2′-fluoro-4-methoxy-[1,1′-biphenyl]-3-yl)methoxy)phenyl)acetic acid], 160 nM.
In turn, `COCc1cc(COc2ccccc2CC(=O)O)cc(-c2cccc([C@@H](C)N)c2F)c1` [Example 120-A] gave an IC50 of 15 nM.
The result for `NCc1cncc(-c2cc(COc3ccccc3CC(=O)O)cc(OC[C@H]3CCCO3)c2)c1` [Example 138-C] reads 1520 nM; that for `C[C@@H](N)c1cccc(-c2cc(CCCF)cc(COc3ccccc3CC(=O)O)c2)c1` [Example 271, (R)-2-(2-((3′-(1-aminoethyl)-5-(3-fluoropropyl)-[1,1′-biphenyl]-3-yl)methoxy)phenyl)acetic acid], 10 nM.
With `NCc1cccc(-c2cc(COc3ccccc3CC(=O)O)cc(C(Nc3ccccc3)C(F)(F)F)c2)c1` (stereo not shown) [Example 208-C] the figure was 6 nM; with `COc1c(C(=O)Nc2ccccc2CC(=O)O)cccc1-c1cc(F)cc(CN)c1` [Example 93-B, 2-(2-(3′-(Aminomethyl)-5′-fluoro-2-methoxy-[1,1′-biphenyl]-3-ylcarboxamido)phenyl)acetic acid], 6720 nM; with `N#CC[C@@H](N)c1cccc(-c2cccc(COc3ccccc3CC(=O)O)c2)c1` [Example 196-E], 272 nM.
The result for `C[C@@H](N)c1cccc(-c2cc(COc3ccccc3CC(=O)O)cc(S(C)(=O)=O)c2)c1F` [Example 250-D, (R)-2-(2-((3′-(1-aminoethyl)-2′-fluoro-5-(methylsulfonyl)-[1,1′-biphenyl]-3-yl)methoxy)phenyl)acetic acid] reads 113 nM; that for `NCc1cc(F)cc(-c2cccc(C(=O)Nc3ccccc3CC(=O)O)n2)c1` [Example 20-B, 2-(2-(6-(3-(Aminomethyl)-5-fluorophenyl)picolinamido)phenyl)acetic acid], 16 nM.
The compound `COCCNc1cc(COc2ccccc2CC(=O)O)cc(-c2cccc([C@@H](C)N)c2F)c1` [Example 223-B, (R)-2-(2-((3′-(1-aminoethyl)-2′-fluoro-5-((2-methoxyethyl)amino)-[1,1′-biphenyl]-3-yl)methoxy)phenyl)acetic acid] showed an IC50 of 9 nM.
With `C[C@@H](N)c1cccc(-c2cc(COc3ccccc3CC(=O)O)cc(NCC3CC3)c2)c1F` [Example 150-C, (R)-2-(2-((3′-(1-Aminoethyl)-5-((cyclopropylmethyl)amino)-2′-fluoro-[1,1′-biphenyl]-3-yl)methoxy)phenyl)acetic acid] the figure was 4 nM; with `NCc1cccc(-c2cc(COc3ccccc3CC(=O)O)cc3c2OCO3)c1` [Example 126-B, 2-(2-((7-(3-(Aminomethyl)phenyl)benzo[d][1,3]dioxol-5-yl)methoxy)phenyl)acetic acid], 3 nM; with `C[C@@H](N)c1cccc(-c2cc(COc3ccccc3CC(=O)O)cc(OCc3ccccn3)c2)c1F` [Example 213, (R)-2-(2-((3′-(1-Aminoethyl)-2′-fluoro-5-(pyridin-2-ylmethoxy)-[1,1′-biphenyl]-3-yl)methoxy)phenyl)acetic acid], 5 nM.
With `CCC[C@@H](N)c1cccc(-c2cc(COc3ccccc3CC(=O)O)cc(C3CC3)c2)c1F` [Example 202-B, (R)-2-(2-((3′-(1-Aminobutyl)-5-cyclopropyl-2′-fluoro-[1,1′-biphenyl]-3-yl)methoxy)phenyl)acetic acid] the figure was 33 nM.
With `CCOc1cc(COc2ccccc2CC(=O)O)cc(-c2cccc([C@@H](C)N)c2)c1` [Example 257, (R)-2-(2-((3′-(1-aminoethyl)-5-ethoxy-[1,1′-biphenyl]-3-yl)methoxy)phenyl)acetic acid] the figure was 9 nM; with `CCc1ccc(-c2cccc([C@@H](C)N)c2F)cc1COc1ccccc1CC(=O)O` [Example 282-D, (R)-2-(2-((3′-(1-aminoethyl)-4-ethyl-2′-fluoro-[1,1′-biphenyl]-3-yl)methoxy)phenyl)acetic acid], 16 nM; with `NCc1cc(F)cc(-c2cc(OCc3ncccn3)cc(C(=O)Nc3ccccc3CC(=O)O)c2)c1` [Example 68, 2-(2-(3′-(Aminomethyl)-5′-fluoro-5-(pyrimidin-2-ylmethoxy)-[1,1′-biphenyl]-3-ylcarboxamido)phenyl)acetic acid], 20 nM.
As to `CNC(c1cc(COc2ccccc2CC(=O)O)cc(-c2cccc(CN)c2)c1)C(F)(F)F` (stereo not shown) [Example 208-A], the IC50 amounted to 19 nM. The IC50 values of the last two compounds are within 1.5-fold of each other.
With `CC(C#N)Oc1cc(C(=O)Nc2ccccc2CC(=O)O)cc(-c2cccc(CN)c2)c1` (racemic) [Example 64, (±)-2-(2-(3′-(Aminomethyl)-5-(1-cyanoethoxy)-[1,1′-biphenyl]-3-ylcarboxamido)phenyl)acetic acid] the figure was 63 nM.
With `C[C@@H](N)c1cccc(-c2cc(COc3ccccc3CC(=O)O)cc(N(C)CC3CC3)c2)c1F` [Example 245, (R)-2-(2-((3′-(1-aminoethyl)-5-((cyclopropylmethyl)(methyl)amino)-2′-fluoro-[1,1′-biphenyl]-3-yl)methoxy)phenyl)acetic acid] the figure was 9 nM; with `CN(Cc1cc(COc2ccccc2CC(=O)O)cc(-c2cccc(CN)c2)c1)CC(F)(F)F` [Example 208-G], 6 nM.
With `NCc1cccc(-c2cc(COc3ccccc3CC(=O)O)cc(NC[C@@H]3CCCO3)c2)c1` [Example 140, (S)-2-(2-((3′-(Aminomethyl)-5-(((tetrahydrofuran-2-yl)methyl)amino)-[1,1′-biphenyl]-3-yl)methoxy)phenyl)acetic acid] the figure was 3 nM; with `N[C@H](CO)c1cccc(-c2cc(COc3ccccc3CC(=O)O)cc(C(F)(F)F)c2)c1` [Example 114-B, (S)-2-(2-((3′-(1-Amino-2-hydroxyethyl)-5-(trifluoromethyl)-[1,1′-biphenyl]-3-yl)methoxy)phenyl)acetic acid], 6 nM.
Turning to `COc1ccc(C(=O)Nc2ccccc2CC(=O)O)cc1-c1cc(F)cc(CN)c1` [Example 9], half-maximal inhibition (IC50) was put at 71 nM.
The result for `CCOC(=O)Cc1ccccc1OCc1cccc(-c2cccc([C@H](N)CO)c2)c1` [Example 268-C, (S)-Ethyl 2-(2-((3′-(1-amino-2-hydroxyethyl)-[1,1′-biphenyl]-3-yl)methoxy)phenyl)acetate] reads 54800 nM; that for `C[C@@H](N)c1cccc(-c2cccc(COc3ccccc3CC(=O)O)c2)n1` [Example 138-I], 301 nM; that for `C[C@@H](N)c1cccc(-c2cc(COc3ccccc3CC(=O)O)cc(OCC3CCCCO3)c2)c1` (stereo partly drawn) [Example 265, 2-(2-((3′-((R)-1-aminoethyl)-5-((tetrahydro-2H-pyran-2-yl)methoxy)-[1,1′-biphenyl]-3-yl)methoxy)phenyl)acetic acid], 7 nM.
Compound `Cc1cc(Nc2cc(C(=O)Nc3ccccc3CC(=O)O)cc(-c3cc(F)cc(CN)c3)c2)n(C)n1` [Example 79-I] came in with an IC50 of 19 nM. Against the preceding compound, the IC50 is about 2.7-fold higher.
The result for `NCc1cc(F)cc(-c2cc(NC3CCOC3)cc(C(=O)Nc3ccccc3CC(=O)O)c2)c1` (stereo not shown) [Example 79-B] reads 9 nM; that for `Nc1cc(-c2cccc([C@H](N)CO)c2)cc(COc2ccccc2CC(=O)O)c1F` [155 a), (S)-2-(2-((5-Amino-3′-(1-amino-2-hydroxyethyl)-4-fluoro-[1,1′-biphenyl]-3-yl)methoxy)phenyl)acetic acid], 3 nM.
With `O=C(O)Cc1ccccc1OCc1cccc(-c2cccc(C3CCCN3)c2)c1` (stereo not shown) [Example 138-J] the figure was 2870 nM.
The result for `CCC[C@@H](N)c1cccc(-c2cccc(COc3ccccc3CC(=O)O)c2)c1` [Example 190-E] reads 34 nM.
